Here are results for seven compounds from ChEMBL document CHEMBL1131962, “A new class of selective and potent inhibitors of neuronal nitric oxide synthase” (Bioorg Med Chem Lett, 1999).

For data set [1], the target named is T1, Muscarinic acetylcholine receptor M2 (Homo sapiens, UniProt P08172).
T1 sequence (P08172 whole entry): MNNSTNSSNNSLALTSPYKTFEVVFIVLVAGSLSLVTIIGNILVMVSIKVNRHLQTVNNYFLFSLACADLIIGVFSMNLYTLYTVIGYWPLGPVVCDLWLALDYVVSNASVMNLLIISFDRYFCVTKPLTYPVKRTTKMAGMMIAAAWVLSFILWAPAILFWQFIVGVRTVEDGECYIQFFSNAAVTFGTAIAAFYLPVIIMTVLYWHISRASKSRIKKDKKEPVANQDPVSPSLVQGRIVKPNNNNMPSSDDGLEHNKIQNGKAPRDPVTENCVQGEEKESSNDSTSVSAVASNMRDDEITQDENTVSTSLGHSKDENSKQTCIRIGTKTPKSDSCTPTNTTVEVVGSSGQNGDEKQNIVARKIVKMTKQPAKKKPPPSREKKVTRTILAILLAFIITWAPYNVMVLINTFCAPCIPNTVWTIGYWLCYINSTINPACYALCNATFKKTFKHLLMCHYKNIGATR
The experiment in a line: Binding affinity of compound to m2 muscarinic receptor.

Data set [2] in a line: Maximum concentration in plasma at 30 min following 24 mg/kg subcutaneous dose in rats. The class given is ADME, organism-based. Further details: dose 24 mg/kg, route subcutaneous. The note with it: rat, sc.
Data set [3] deals with T2, Muscarinic acetylcholine receptor M4 (Homo sapiens, UniProt P08173).
T2 sequence (P08173 whole entry): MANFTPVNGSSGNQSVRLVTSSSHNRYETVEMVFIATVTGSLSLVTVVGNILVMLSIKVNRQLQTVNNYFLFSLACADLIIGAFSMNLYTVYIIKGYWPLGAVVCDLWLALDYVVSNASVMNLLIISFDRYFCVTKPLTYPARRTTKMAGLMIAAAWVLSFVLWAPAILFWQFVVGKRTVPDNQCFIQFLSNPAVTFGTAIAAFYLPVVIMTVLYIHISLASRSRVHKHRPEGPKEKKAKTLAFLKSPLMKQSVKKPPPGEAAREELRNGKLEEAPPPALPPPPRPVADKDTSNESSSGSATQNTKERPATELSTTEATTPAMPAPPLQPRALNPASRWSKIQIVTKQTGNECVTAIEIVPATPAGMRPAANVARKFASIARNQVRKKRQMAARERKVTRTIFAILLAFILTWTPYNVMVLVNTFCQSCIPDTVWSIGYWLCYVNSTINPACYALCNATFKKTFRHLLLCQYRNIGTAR
Briefly: Binding ability of compound to m4 muscarinic receptor.

Data set [4] is described as follows: Maximum concentration in CSF at 30 min following 24 mg/kg subcutaneous dose in rats. The format is ADME, organism-based, Cerebrospinal fluid. Further details: dose 24 mg/kg, route subcutaneous. The note with it: rat, sc.
In data set [5] the target is T3, D(2) dopamine receptor (Homo sapiens, UniProt P14416). Briefly: Binding affinity of compound to Dopamine receptor D2.
T3 sequence (P14416 whole entry): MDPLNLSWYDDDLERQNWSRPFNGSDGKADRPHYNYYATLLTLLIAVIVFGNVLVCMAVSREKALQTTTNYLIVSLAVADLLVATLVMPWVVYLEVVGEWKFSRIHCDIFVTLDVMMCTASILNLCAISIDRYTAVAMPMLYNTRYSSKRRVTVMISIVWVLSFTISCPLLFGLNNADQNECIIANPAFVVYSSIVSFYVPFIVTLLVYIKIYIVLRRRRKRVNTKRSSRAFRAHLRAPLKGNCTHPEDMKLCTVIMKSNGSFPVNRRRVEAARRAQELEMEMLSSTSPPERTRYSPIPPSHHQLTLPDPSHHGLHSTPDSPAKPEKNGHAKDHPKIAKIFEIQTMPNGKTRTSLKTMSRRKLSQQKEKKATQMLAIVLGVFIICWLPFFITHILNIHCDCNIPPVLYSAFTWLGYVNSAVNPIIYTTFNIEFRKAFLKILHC
Data set [6] has as its target Nitric oxide synthase 1 (Rattus norvegicus, UniProt P29476). The experiment in a line: Inhibitory activity against rat neuronal nitric oxide synthase (nNOS).
The target of another data set is T4, Nitric oxide synthase 3 (Homo sapiens, UniProt P29474).
T4 sequence (P29474 whole entry): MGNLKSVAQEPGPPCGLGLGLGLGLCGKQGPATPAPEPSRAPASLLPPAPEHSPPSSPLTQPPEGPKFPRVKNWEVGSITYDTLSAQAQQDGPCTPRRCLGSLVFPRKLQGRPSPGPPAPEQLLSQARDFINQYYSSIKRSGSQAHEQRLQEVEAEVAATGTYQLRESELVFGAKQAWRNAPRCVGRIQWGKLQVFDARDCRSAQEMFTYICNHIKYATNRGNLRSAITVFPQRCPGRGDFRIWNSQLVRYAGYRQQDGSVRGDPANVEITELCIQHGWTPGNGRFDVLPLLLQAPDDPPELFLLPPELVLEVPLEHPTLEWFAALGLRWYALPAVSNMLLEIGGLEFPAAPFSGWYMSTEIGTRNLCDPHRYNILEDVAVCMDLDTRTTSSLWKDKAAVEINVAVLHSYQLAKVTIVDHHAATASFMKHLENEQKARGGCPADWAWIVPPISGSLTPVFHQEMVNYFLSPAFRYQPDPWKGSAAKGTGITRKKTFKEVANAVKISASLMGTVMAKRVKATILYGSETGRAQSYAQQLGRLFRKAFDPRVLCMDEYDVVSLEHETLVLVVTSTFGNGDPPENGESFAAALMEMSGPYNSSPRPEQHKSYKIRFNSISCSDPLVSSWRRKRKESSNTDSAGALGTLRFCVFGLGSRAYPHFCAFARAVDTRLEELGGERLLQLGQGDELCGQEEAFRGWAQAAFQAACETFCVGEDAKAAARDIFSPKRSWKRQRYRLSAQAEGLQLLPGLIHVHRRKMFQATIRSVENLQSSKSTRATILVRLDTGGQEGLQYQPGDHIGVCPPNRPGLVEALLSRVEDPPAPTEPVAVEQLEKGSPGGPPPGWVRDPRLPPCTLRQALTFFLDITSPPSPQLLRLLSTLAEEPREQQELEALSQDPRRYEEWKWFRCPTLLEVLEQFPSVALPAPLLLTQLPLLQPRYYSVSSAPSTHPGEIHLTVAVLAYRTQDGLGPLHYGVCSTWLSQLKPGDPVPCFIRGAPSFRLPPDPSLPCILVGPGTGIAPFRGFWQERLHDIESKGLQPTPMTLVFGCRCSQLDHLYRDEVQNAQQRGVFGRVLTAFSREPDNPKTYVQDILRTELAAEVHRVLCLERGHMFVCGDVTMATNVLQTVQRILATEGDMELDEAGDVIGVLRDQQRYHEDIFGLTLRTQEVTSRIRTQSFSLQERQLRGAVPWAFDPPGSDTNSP
Briefly: Inhibitory activity against human endothelial nitric oxide synthase (eNOS).

A short description of data set [7]: Half life in rats. The class given is ADME, organism-based. The conditions noted are these: rat, in vivo.
Data set [8] is described as follows: Maximum concentration in whole brain at 30 min following 24 mg/kg subcutaneous dose in rats. The conditions noted are these: rat, sc. Further details: dose 24 mg/kg, route subcutaneous. The class given is ADME, organism-based.
The target of data set [9] is Nitric oxide synthase 1 (Homo sapiens, UniProt P29475). The experiment in a line: Inhibitory activity against human neuronal nitric oxide synthase (nNOS).
Nitric oxide synthase 1 (Homo sapiens, UniProt P29475), sequence (P29475 whole entry): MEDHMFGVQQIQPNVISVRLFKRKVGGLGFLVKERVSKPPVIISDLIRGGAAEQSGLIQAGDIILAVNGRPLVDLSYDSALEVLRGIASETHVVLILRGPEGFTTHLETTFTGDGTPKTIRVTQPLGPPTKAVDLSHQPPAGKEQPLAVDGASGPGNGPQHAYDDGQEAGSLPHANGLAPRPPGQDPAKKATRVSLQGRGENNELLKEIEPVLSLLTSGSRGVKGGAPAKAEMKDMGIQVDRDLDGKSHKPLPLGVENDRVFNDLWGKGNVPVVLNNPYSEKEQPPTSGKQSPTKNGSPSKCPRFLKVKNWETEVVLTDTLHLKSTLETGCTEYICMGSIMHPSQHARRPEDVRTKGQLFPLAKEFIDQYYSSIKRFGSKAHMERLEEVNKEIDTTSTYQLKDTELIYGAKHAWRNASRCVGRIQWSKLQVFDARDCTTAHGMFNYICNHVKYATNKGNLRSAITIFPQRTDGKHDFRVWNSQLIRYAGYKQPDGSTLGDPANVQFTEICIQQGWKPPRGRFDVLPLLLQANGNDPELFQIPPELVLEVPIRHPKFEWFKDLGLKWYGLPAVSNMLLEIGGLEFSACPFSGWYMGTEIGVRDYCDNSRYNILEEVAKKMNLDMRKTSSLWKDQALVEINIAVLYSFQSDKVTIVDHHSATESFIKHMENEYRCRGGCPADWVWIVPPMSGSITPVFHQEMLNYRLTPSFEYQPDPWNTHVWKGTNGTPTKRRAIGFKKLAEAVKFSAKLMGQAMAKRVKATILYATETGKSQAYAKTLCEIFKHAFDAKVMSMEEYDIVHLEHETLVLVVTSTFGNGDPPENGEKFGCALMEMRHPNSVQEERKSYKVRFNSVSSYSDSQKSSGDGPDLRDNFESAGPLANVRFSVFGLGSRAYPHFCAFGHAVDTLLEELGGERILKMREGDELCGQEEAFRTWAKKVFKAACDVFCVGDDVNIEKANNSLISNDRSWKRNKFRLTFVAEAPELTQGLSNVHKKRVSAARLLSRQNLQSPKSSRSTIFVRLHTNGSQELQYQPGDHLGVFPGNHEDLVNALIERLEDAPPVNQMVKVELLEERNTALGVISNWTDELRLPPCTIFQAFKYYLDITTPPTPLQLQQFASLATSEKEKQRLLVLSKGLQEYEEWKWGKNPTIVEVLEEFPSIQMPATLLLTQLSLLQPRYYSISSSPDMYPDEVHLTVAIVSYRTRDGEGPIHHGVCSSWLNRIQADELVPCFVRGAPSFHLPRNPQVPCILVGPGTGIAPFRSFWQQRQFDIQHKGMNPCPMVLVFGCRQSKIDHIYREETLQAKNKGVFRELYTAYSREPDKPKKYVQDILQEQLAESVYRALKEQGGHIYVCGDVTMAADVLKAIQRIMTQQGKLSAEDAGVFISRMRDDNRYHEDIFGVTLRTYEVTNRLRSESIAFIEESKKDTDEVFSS
The target in data set [10] is T3, D(2) dopamine receptor. Briefly: Binding ability of compound to human Dopamine receptor D2.
For data set [11], the target named is T5, 5-hydroxytryptamine receptor 1A (Homo sapiens, UniProt P08908).
T5 sequence (P08908 whole entry): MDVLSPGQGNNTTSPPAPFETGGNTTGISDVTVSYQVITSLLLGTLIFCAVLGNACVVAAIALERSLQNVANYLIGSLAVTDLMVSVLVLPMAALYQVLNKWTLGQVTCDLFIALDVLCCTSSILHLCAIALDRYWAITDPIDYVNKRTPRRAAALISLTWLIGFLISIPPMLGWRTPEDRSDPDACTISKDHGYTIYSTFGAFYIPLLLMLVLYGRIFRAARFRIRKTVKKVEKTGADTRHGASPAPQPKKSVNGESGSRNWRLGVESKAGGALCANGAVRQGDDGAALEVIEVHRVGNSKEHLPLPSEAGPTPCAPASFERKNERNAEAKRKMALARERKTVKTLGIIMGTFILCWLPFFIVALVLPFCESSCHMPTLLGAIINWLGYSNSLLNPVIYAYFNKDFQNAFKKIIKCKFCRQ
Briefly: Binding affinity of compound to human 5-hydroxytryptamine 1A receptor.

The target in data set [12] is 5-hydroxytryptamine receptor 2A (Homo sapiens, UniProt P28223). The experiment in a line: Binding affinity of compound to human 5-hydroxytryptamine 2A receptor.
5-hydroxytryptamine receptor 2A, sequence (P28223 whole entry): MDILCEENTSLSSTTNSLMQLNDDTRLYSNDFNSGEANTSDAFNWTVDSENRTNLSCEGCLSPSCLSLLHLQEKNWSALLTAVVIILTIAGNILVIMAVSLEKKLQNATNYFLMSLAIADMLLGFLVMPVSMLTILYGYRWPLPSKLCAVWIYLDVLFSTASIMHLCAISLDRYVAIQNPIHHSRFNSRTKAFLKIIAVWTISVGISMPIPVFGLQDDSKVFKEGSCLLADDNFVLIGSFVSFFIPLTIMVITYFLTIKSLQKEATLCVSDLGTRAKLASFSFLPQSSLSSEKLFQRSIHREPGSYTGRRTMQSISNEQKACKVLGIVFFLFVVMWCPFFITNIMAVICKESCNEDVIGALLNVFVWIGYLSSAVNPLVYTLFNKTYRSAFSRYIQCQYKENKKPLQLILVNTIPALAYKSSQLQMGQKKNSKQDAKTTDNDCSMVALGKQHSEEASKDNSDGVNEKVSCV

A word on the pKi: it is −log10 of the Ki, conventionally taken in molar units. Read a high pKi as a small Ki. Broadly, the Cmax is the peak of the concentration-time curve. A word on the pIC50: it is the negative decadic logarithm of the IC50, by convention in mol/L. A word on the half-life: it is how long it takes for the measured level to halve. A high value points to slow decline.

pIC50, pKi: −log10 of the molar value. Bounds are passed on as bounds.

Nitric oxide synthase 1 (Rattus norvegicus, UniProt P29476), sequence (P29476 whole entry): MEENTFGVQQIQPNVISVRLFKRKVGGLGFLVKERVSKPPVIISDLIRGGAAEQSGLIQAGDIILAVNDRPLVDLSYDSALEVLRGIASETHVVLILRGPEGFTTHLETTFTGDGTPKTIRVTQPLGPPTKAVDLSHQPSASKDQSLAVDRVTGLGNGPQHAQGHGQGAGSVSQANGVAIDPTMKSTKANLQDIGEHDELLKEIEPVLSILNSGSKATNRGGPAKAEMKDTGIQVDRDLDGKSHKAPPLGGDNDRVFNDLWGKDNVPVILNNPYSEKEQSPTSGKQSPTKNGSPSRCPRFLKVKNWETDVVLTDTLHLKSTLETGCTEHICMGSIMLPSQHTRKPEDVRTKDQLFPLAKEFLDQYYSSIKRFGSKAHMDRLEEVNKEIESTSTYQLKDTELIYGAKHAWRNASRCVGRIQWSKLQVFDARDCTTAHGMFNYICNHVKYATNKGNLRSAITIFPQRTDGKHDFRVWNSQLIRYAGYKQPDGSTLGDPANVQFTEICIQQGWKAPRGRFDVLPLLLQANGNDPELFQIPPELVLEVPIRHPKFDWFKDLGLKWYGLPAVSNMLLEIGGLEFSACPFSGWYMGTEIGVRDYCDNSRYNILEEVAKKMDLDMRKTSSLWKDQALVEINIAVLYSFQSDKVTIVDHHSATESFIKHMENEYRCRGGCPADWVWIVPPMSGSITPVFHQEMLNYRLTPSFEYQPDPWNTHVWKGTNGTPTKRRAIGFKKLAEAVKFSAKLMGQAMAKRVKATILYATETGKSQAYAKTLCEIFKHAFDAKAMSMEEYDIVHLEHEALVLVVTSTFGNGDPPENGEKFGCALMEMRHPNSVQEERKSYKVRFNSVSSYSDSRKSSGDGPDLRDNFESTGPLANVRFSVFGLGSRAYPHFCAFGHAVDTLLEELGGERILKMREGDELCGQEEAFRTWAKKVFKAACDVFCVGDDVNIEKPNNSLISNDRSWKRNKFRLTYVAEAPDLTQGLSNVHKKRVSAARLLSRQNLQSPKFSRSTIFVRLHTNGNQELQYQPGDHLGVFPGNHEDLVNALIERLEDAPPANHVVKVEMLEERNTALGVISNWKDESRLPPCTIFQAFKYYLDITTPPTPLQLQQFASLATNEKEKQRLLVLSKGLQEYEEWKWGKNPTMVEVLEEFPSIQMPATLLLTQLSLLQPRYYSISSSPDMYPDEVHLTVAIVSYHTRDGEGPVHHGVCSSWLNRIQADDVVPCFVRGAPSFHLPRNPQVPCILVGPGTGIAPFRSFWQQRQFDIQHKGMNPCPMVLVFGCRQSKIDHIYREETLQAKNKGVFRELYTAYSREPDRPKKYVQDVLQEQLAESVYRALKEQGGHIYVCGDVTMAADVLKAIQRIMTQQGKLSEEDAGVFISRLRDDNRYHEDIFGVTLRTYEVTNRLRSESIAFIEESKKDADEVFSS

`Nc1cccc(-c2ccc(CCN3CCN(CC(=O)c4ccccc4)CC3)cc2)n1`: the figures for the negative logarithm of the Ki (pKi) in data set [1] and in [3] were 6.49 and 6.23, respectively. Further, the Cmax in data set [2] came out at 1.7 µg/mL; in data set [4], 0.45 µg/mL; in [8] it was 11 µg/mL. Also, the pIC50 was under 5.00 at D(2) dopamine receptor [5], 6.90 at Nitric oxide synthase 1 [6], 6.05 against Nitric oxide synthase 3 and 6.85 at Nitric oxide synthase 1 [9]. Moreover, in data set [7], the half-life is 3.6 h.

Take `Nc1cccc(-c2ccc(CCN3CCN(C(=O)Cc4ccccc4)CC3)cc2)n1`: the pIC50 at Nitric oxide synthase 1 [6] is 6.97; on Nitric oxide synthase 3, 6.16; against Nitric oxide synthase 1 [9], 6.86.

As for `Nc1cccc(-c2ccc(CCN3CCN(CCc4ccccc4)CC3)cc2)n1`, the pIC50 at Nitric oxide synthase 1 [6] was 6.61; against Nitric oxide synthase 3, 6.35; on Nitric oxide synthase 1 [9], 6.58.

Compound `O=[N+]([O-])c1cccc2cn[nH]c12` [7-NITROINDAZOLE] gave a pIC50 against Nitric oxide synthase 1 [9] of 5.54.

As for `CC(C)NC(=O)CN1CCN(CCc2ccc(-c3cccc(N)n3)cc2)CC1`, the pIC50 on Nitric oxide synthase 1 [6] is 6.59; against Nitric oxide synthase 3, 6.09; on Nitric oxide synthase 1 [9], 6.48.

On to `Nc1cccc(-c2ccc(CCN3CCN(c4cccc5cccnc45)CC3)cc2)n1`, for which the pKi at D(2) dopamine receptor [10] was 7.96; in [11], 8.52; in data set [12], 7.85. The negative logarithm of the IC50 (pIC50) against Nitric oxide synthase 1 [6] is 6.89; at Nitric oxide synthase 3 it was 6.08; against Nitric oxide synthase 1 [9] it was 6.67.

Regarding `CC(C)CN1CCN(CCc2ccc(-c3cccc(N)n3)cc2)CC1`, the negative-log IC50 (pIC50) on Nitric oxide synthase 1 [6] is 6.71; against Nitric oxide synthase 3, 6.43; at Nitric oxide synthase 1 [9] it was 6.46.
